According to patent publication US9302999B2, “Substituted triazoles as herbicides” (E. I. DU PONT DE NEMOURS AND COMPANY, priority 2012, dated 2016):

Key:
Format in all cases: in vivo
[1] = tested on: barley, spring (spring barley, Hordeum vulgare); experiment: Test D pre-/postemergence: barley, spring
In short: (§1)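 Visual ratings from 0 (no effect) to 100 (complete control) were made 14–21 days after treatment, relative to controls. Applications were preemergence to seeds in silt loam, or postemergence to 2–18 cm (1–4 leaf) plants in peat-based medium. Compounds were formulated in a surfactant-containing non-phytotoxic solvent.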

[2] = tested on: deadnettle (henbit deadnettle, Lamium amplexicaule); experiment: Test C postemergence: deadnettle
In short: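 Visual ratings of 0 (no effect) to 100 (complete control) were made against controls 13-15 days after a postemergence spray, with plants kept in a greenhouse. Plants were 2-18 cm tall (1- to 4-leaf stage) in Redi-Earth peat/vermiculite medium at treatment.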

[3] = tested on: sedge, umbrella (small-flower umbrella sedge Cyperus difformis); experiment: Test B flooded paddy: sedge, umbrella; details: Flood; 250 g ai/ha; applied to paddy water at 2-leaf stage; visually evaluated after 13 to 15 days
In short: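 At two leaves, seedlings received the test compound via the paddy water, pots having been flooded 3 cm over the soil surface and kept so. Greenhouse-held for 13 to 15 days, then judged by eye against controls on a scale running 0 (no effect) to 100 (complete control).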

[4] = tested on: common (oilseed) sunflower (Helianthus annuus); experiment: Test C pre-/postemergence: sunflower; details: Preemergence
In short: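 Visual injury scored 0–100 (100 = complete control) against untreated controls after 13–15 greenhouse days. Surfactant-containing solvent formulations applied either to soil after sowing (loam/sand) or over 1- to 4-leaf plants, 2–18 cm tall.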

[5] = tested on: blackgrass (Alopecurus myosuroides); experiment: Test D pre-/postemergence: blackgrass
In short: as §1

[6] = tested on: ryegrass, Italian (Italian ryegrass, Lolium multiflorum); experiment: Test D pre-/postemergence: ryegrass, Italian
In short: as §1

[7] = tested on: lambsquarters (Chenopodium album); experiment: Test D pre-/postemergence: lambsquarters
In short: as §1

[8] = Postemergence, 31 g ai/ha, scale 0 to 100 (0 no effect, 100 complete control)
[9] = Postemergence, 62 g ai/ha, scale 0 to 100 (0 no effect, 100 complete control)
[10] = Postemergence, 125 g ai/ha, scale 0 to 100, 0 no effect, 100 complete control
[11] = Postemergence, 250 g ai/ha, scale 0 to 100 (0 no effect, 100 complete control)
[12] = Postemergence, 16 g ai/ha, scale 0 to 100
[13] = Preemergence, 16 g ai/ha, scale 0 to 100 (0 no effect, 100 complete control)
[14] = Preemergence, 31 g ai/ha, scale 0 to 100 (0 no effect, 100 complete control)
[15] = Preemergence, 62 g ai/ha, scale 0 to 100
[16] = Preemergence, 125 g ai/ha, scale 0 to 100
[17] = Preemergence, 250 g ai/ha, scale 0 to 100
[18] = 125 g ai/ha, scale 0 to 100, 0 no effect, 100 complete control

CCOc1nn(-c2ccc(F)cc2)nc1Cc1ccnc(C(F)F)c1 [Compound 195]
Plant response rating: Barley, Spring [1, 8]: 15 | Plant response rating: Barley, Spring [1, 9]: 20 | Plant response rating: Barley, Spring [1, 10]: 30 | Plant response rating: Barley, Spring [1, 11]: 40 | Plant response rating, Barley, Spring [1, 12]: 10 | Plant response rating, Barley, Spring [1, 13]: 0 | Plant response rating, Barley, Spring [1, 14]: 0 | Plant response rating, Barley, Spring [1, 15]: 0 | Plant response rating, Barley, Spring [1, 16]: 0 | Plant response rating, Barley, Spring [1, 17]: 30 | Plant response rating, Deadnettle ([2]; 31 g ai/ha, scale 0 to 100 (0 no effect, 100 complete control)): 100 | Plant response rating, Deadnettle ([2]; 62 g ai/ha, scale 0 to 100 (0 no effect, 100 complete control)): 100 | Plant response rating, Deadnettle [2, 18]: 100 | Plant response rating, Deadnettle ([2]; 250 g ai/ha, scale 0 to 100): 100 | Plant response rating, Sedge, Umbrella (0 to 100 scale, 0 is no effect, 100 is complete control) [3]: 100 | Plant response rating, Sunflower ([4]; 31 g ai/ha, scale 0 (no effect) to 100 (complete control)): 0 | Plant response rating, Sunflower ([4]; 62 g ai/ha, scale of 0 to 100, 0 is no effect, 100 is complete control): 15 | Plant response rating, Sunflower [4, 18]: 15 | Plant response rating, Sunflower ([4]; 250 g ai/ha, scale 0 to 100, 0 no effect, 100 complete control): 20 | Plant response rating: Blackgrass [5, 8]: 25 | Plant response rating: Blackgrass [5, 9]: 35 | Plant response rating: Blackgrass [5, 10]: 50 | Plant response rating: Blackgrass [5, 11]: 70 | Plant response rating, Blackgrass [5, 12]: 20 | Plant response rating, Blackgrass [5, 13]: 0 | Plant response rating, Blackgrass [5, 14]: 70 | Plant response rating, Blackgrass [5, 15]: 75 | Plant response rating, Blackgrass [5, 16]: 80 | Plant response rating, Blackgrass [5, 17]: 100 | Plant response rating: Ryegrass, Italian [6, 8]: 10 | Plant response rating: Ryegrass, Italian [6, 9]: 20 | Plant response rating: Ryegrass, Italian [6, 10]: 20 | Plant response rating: Ryegrass, Italian [6, 11]: 25 | Plant response rating, Ryegrass, Italian [6, 12]: 5 | Plant response rating, Ryegrass, Italian [6, 13]: 0 | Plant response rating, Ryegrass, Italian [6, 14]: 0 | Plant response rating, Ryegrass, Italian [6, 15]: 0 | Plant response rating, Ryegrass, Italian [6, 16]: 20 | Plant response rating, Ryegrass, Italian [6, 17]: 60 | Plant response rating: Lambsquarters [7, 8]: 75 | Plant response rating: Lambsquarters [7, 9]: 80 | Plant response rating: Lambsquarters [7, 10]: 95 | Plant response rating: Lambsquarters [7, 11]: 100 | Plant response rating, Lambsquarters [7, 12]: 60 | Plant response rating, Lambsquarters [7, 13]: 0 | Plant response rating, Lambsquarters [7, 14]: 0 | Plant response rating, Lambsquarters [7, 15]: 0 | Plant response rating, Lambsquarters [7, 16]: 30 | Plant response rating, Lambsquarters [7, 17]: 75
